The text below walks through data of patent US7749996B2, “Heterotricyclic metalloprotease inhibitors” (Alantos Pharmaceutical Holdings, Inc., priority 2006, dated 2010).

The term IC50 denotes the concentration needed to halve the response being measured. The low end stands for inhibition by little substance, the high end for a need for much substance.

Type in all cases: biochemical
Experiment [1] addresses T1, catalytic domain of MMP-3 enzyme (Homo sapiens, UniProt P08254).
T1 construct: stock solution of the catalytic domain of MMP-3 enzyme (Biomol, Cat. No. SE-109); purchased Biomol SE-109
The experiment in a line: Assay for determining MMP-3 inhibition (NFF-3 fluorescent substrate). As to conditions: Table 3, activity group. The protocol:
The typical assay for MMP-3 activity is carried out in assay buffer comprised of 50 mM MES, pH 6.0, 10 mM CaCl2 and 0.05% Brij-35. Different concentrations of tested compounds are prepared in assay buffer in 50 μL aliquots. […] The mixture of enzyme and compound in assay buffer is thoroughly mixed and incubated for 10 min at room temperature. […] The time-dependent increase in fluorescence is measured at the 330 nm excitation and 390 nm emission by an automatic plate multireader. The IC50 values are calculated from the initial reaction rates.

The target in experiment [2] is T2, catalytic domain of MMP-13 enzyme (Homo sapiens, UniProt P45452).
T2 construct: stock solution of catalytic domain of MMP-13 enzyme (produced by Alantos or commercially available from Invitek (Berlin), Cat.# 30100812); purchased Invitek (Berlin) 30100812
The experiment in a line: Assay for determining MMP-13 inhibition (fluorescent substrate). The settings on record: Table 1, activity group. The protocol: The typical assay for MMP-13 activity is carried out in assay buffer comprised of 50 mM Tris, pH 7.5, 150 mM NaCl, 5 mM CaCl2 and 0.05% Brij-35. Different concentrations of tested compounds are prepared in assay buffer in 50 μL aliquots. […] The mixture of enzyme and compound in assay buffer is thoroughly mixed and incubated for 10 min at room temperature. […] The time-dependent increase in fluorescence is measured at the 320 nm excitation and 390 nm emission by automatic plate multireader. The IC50 values are calculated from the initial reaction rates.

In another experiment the target is T3, activated MMP-8 enzyme (Homo sapiens, UniProt P22894).
T3 construct: purchased Calbiochem 444229
The experiment in a line: Assay for determining MMP-8 inhibition (fluorescent substrate). The settings on record: Table 2, activity group. The protocol: The typical assay for MMP-8 activity is carried out in assay buffer comprised of 50 mM Tris, pH 7.5, 150 mM NaCl, 5 mM CaCl2 and 0.05% Brij-35. Different concentrations of tested compounds are prepared in assay buffer in 50 μL aliquots. […] The mixture of enzyme and compound in assay buffer is thoroughly mixed and incubated for 10 min at 37° C. […] The time-dependent increase in fluorescence is measured at the 320 nm excitation and 390 nm emission by an automatic plate multireader at 37° C. The IC50 values are calculated from the initial reaction rates.

T1 sequence (P08254 100-272 limits assumed): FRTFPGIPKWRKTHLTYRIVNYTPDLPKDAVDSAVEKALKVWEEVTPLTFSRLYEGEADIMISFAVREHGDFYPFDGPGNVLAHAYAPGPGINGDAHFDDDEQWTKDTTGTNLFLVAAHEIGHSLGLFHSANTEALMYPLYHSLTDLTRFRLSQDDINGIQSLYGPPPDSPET
T3 sequence (P22894 101-467): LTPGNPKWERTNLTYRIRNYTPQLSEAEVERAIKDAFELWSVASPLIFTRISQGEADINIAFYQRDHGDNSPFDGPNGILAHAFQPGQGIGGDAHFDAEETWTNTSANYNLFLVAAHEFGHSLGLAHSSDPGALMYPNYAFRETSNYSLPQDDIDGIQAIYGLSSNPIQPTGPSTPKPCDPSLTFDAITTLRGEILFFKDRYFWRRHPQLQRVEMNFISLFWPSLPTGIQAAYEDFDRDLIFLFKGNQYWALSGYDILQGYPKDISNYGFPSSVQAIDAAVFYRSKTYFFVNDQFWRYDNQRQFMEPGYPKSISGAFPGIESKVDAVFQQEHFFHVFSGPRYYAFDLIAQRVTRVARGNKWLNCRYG

As for `O=C1COc2ccc(CNC(=O)c3nc4sc5c(c4c(=O)[nH]3)CCCS5(=O)=O)cc2N1` [Example 22], the IC50 is 250 to 20000 nM in experiment [1], less than 100 nM in experiment [2] and 250 to 20000 nM at activated MMP-8 enzyme.
With `O=C1COc2ccc(CNC(=O)c3nc4sc5c(c4c(=O)[nH]3)CCOCC5)cc2N1` [2/211], the 50% inhibitory concentration (IC50) in experiment [1] was 250 to 20000 nM; in experiment [2] it was less than 100 nM; on activated MMP-8 enzyme, less than 250 nM.
For `CCOC(=O)C1CCc2sc3nc(C(=O)NCc4ccc5c(c4)CN(c4c(N)c(=O)c4=O)CC5)[nH]c(=O)c3c2C1` (stereo not drawn) [2/209], in that order: 250 to 20000 nM, less than 100 nM and less than 250 nM.
For the compound `O=C(O)CNC(=O)C1CCc2sc3nc(C(=O)NCc4ccc5c(c4)NC(=O)CO5)[nH]c(=O)c3c21` (stereo not drawn) [15/2], the concentration for half-maximal inhibition (IC50) in experiment [1] was 250 to 20000 nM; in experiment [2], less than 100 nM; at activated MMP-8 enzyme it was less than 250 nM.
For `CS(=O)(=O)N1Cc2sc3nc(C(=O)NCc4ccc5c(c4)NC(=O)CO5)[nH]c(=O)c3c2C1` [42/2], in that order: less than 250 nM, less than 100 nM and less than 250 nM.
For `COc1ccc2c(c1)CCc1sc3nc(C(=O)NCc4ccc5c(c4)NC(=O)CO5)[nH]c(=O)c3c1-2` [2/107], in that order: 250 to 20000 nM, less than 100 nM and less than 250 nM.
The corresponding values for `CC(=O)N1CCc2c(sc3nc(C(=O)NCc4ccc5c(c4)CN(c4c(N)c(=O)c4=O)CC5)[nH]c(=O)c23)C1` [2/95] are 250 to 20000 nM, less than 100 nM and less than 250 nM.
On to `CC1c2c(sc3nc(C(=O)NCc4ccc5c(c4)NC(=O)CO5)[nH]c(=O)c23)CS1(=O)=O` (stereo not drawn) [22/2], for which the results for the IC50 (in experiment [1]; in experiment [2]; at activated MMP-8 enzyme) were 250 to 20000 nM, less than 100 nM and 250 to 20000 nM, respectively.
With `CC1SCc2sc3nc(C(=O)NCc4ccc5c(c4)CN(c4c(N)c(=O)c4=O)CC5)[nH]c(=O)c3c21` (stereo not drawn) [2/132], the half-inhibitory concentration (IC50) in experiment [1] is 250 to 20000 nM; in experiment [2], less than 100 nM; at activated MMP-8 enzyme, less than 250 nM.
With `Cc1snc2sc3c(=O)[nH]c(C(=O)NCc4ccc5c(c4)NC(=O)CO5)nc3c12` [Example 39/7], the half-maximal inhibitory concentration (IC50) in experiment [1] was in the range of 250 to 20000 nM; in experiment [2], 100 to 20000 nM; against activated MMP-8 enzyme, 250 to 20000 nM.
In the case of `O=C1COc2ccc(CNC(=O)c3nc4sc5c(c4c(=O)[nH]3)CCCS(=O)(=O)C5)cc2N1` [Example 22/1], the IC50 in experiment [1] is 250 to 20000 nM; in experiment [2], less than 100 nM; at activated MMP-8 enzyme it was less than 250 nM.
The corresponding values for `O=C(O)CNC(=O)CC1CCCc2sc3nc(C(=O)NCc4ccc5c(c4)NC(=O)CO5)[nH]c(=O)c3c21` (stereo not drawn) [Example 15] are 250 to 20000 nM, less than 100 nM and less than 250 nM.
The corresponding values for `O=C(O)CC1CCCc2sc3nc(C(=O)NCc4ccc5c(c4)NC(=O)CO5)[nH]c(=O)c3c21` (stereo not drawn) [Example 3] are 250 to 20000 nM, less than 100 nM and 250 to 20000 nM.
On to `N#CC1CCc2sc3nc(C(=O)NCc4ccc5c(c4)NC(=O)CO5)[nH]c(=O)c3c21` (stereo not drawn) [Example 19], for which the half-maximal inhibitory concentration (IC50) in experiment [1] is 250 to 20000 nM; in experiment [2], less than 100 nM; against activated MMP-8 enzyme it was less than 250 nM.
For `O=C1COc2ccc(CNC(=O)c3nc4sc5c(c4c(=O)[nH]3)CCS(=O)(=O)C5)cc2N1` [2/103], in that order: less than 250 nM, less than 100 nM and less than 250 nM.
For `O=C1COc2ccc(CNC(=O)C3NC(=O)c4c(sc5c4CCCN(CC4CCCCO4)C5=O)N3)cc2N1` (stereo not drawn) [2/188], in that order: 250 to 20000 nM, less than 100 nM and less than 250 nM.
For `O=C1COc2ccc(CNC(=O)c3nc4sc5c(c4c(=O)[nH]3)CC(C(=O)O)C5)cc2N1` (stereo not drawn) [4/15], in that order: 250 to 20000 nM, less than 100 nM and less than 250 nM.
In the case of `O=C1COc2ccc(CNC(=O)c3nc4sc5c(c4c(=O)[nH]3)CCC[S+]([O-])C5)cc2N1` (stereo not drawn) [Example 26], the IC50 was 250 to 20000 nM in experiment [1], less than 100 nM in experiment [2] and less than 250 nM against activated MMP-8 enzyme.
As for `CC(C)(C)OC(=O)N1CCc2sc3nc(C(=O)NCc4ccc5c(c4)NC(=O)CO5)[nH]c(=O)c3c2CC1` [2/171], the IC50 is 250 to 20000 nM in experiment [1], less than 100 nM in experiment [2] and less than 250 nM against activated MMP-8 enzyme.
